The values that follow come from publication PMC12040169 (PLOS Biology, 2025).

In general, viability refers to a read-out of living cells in per cent, often relative to untreated cells.

This series in a line: in vitro. As to conditions: human, hela cells, % viability.
Regarding `CC(C)[C@@H](CO)NC(=O)c1cnc(-c2cccc(C(F)(F)F)c2)c(-c2cccnc2)c1` [CBK037520], the viability at 28.5 h, 10 µM is 112%.

In the case of `c1ccc(CNc2nccn3ccnc23)nc1` [CBK037526], the viability at 28.5 h, 10 µM worked out at 104%.

Consider `Cc1cccc(CNc2nccnc2-c2cccc(Cl)c2)c1` [CBK037527], for which the viability at 28.5 h, 10 µM was determined as 109%.

Turning to `O=C(Nc1ccc2c(c1)OCCO2)c1cnc(-c2ccc(Cl)cc2)c(-c2cccnc2)c1` [CBK037528], the viability at 28.5 h, 10 µM is 110%.

Turning to `O=C(NCC(c1ccccc1)N1CCOCC1)c1cnc(-c2ccc(F)cc2)c(-c2ccco2)c1` (centres unmarked) [CBK037531], the viability at 28.5 h, 10 µM stood at 95.7%.

For the molecule `COc1cc(-c2cn3ccnc3c(NCC3CC3)n2)ccc1O` [CBK037538], the viability at 28.5 h, 10 µM came out at 106%.

Consider `Fc1ccccc1-c1nccnc1NCc1ccncc1` [CBK037540], for which the viability at 28.5 h, 10 µM amounted to 101%.

As for `CC(C)[C@H](CO)Nc1nccnc1-c1cccc(O)c1` [CBK037542], the viability at 28.5 h, 10 µM was found to be 96.1%.

`COc1cccc(CNc2nccnc2-c2ccsc2)c1OC` [CBK037543]: the viability at 28.5 h, 10 µM came out at 107%.

Take `O=C(NCCCN1CCCC1=O)c1cnc(-c2ccc(Cl)cc2)c(-c2ccncc2)c1` [CBK037545]: the viability at 28.5 h, 10 µM is 74.8%.

For `O=C(NCCS(=O)(=O)c1ccccc1)c1cnc(-c2ccc(Cl)cc2)c(-c2ccco2)c1` [CBK037546], the viability at 28.5 h, 10 µM was found to be 96.4%.

As to `O=C(NCc1ccc2c(c1)OCO2)c1cnc(-c2ccc(Cl)cc2)c(-c2ccco2)c1` [CBK037547], the viability at 28.5 h, 10 µM worked out at 98.3%.

Regarding `O=C(NCc1nc2ccccc2[nH]1)c1cnc(-c2ccc(Cl)cc2)c(-c2ccco2)c1` [CBK037555], the viability at 28.5 h, 10 µM was 106%.

On to `CC(NC(=O)c1cnc(-c2cccc(C(F)(F)F)c2)c(-c2ccncc2)c1)c1ccc(F)cc1` (centres unmarked) [CBK037556], for which the viability at 28.5 h, 10 µM worked out at 99.7%.

Turning to `CC(=O)c1ccc(-c2nc(NC(=O)c3cccs3)cnc2-c2ccc(F)cc2)s1` [CBK037558], the viability at 28.5 h, 10 µM came out at 81.8%.

As to `NC1CCC(NC(=O)c2cnc(-c3ccc(Cl)cc3)c(-c3ccco3)c2)CC1` (centres unmarked) [CBK037563], the viability at 28.5 h, 10 µM is 105%.

On to `Cc1cccc(-c2ncc(NC(=O)Cc3ccc(-c4ccccc4)cc3)nc2-c2ccc(N(C)C)cc2)c1` [CBK037567], for which the viability at 28.5 h, 10 µM was found to be 98.1%.

As for `COc1cc(NC(=O)c2cnc(-c3ccc(Cl)cc3)c(-c3ccco3)c2)cc(C(F)(F)F)c1` [CBK037570], the viability at 28.5 h, 10 µM is 91.4%.

Turning to `COc1ccc(-c2cc(C(=O)NCc3ccc4c(c3)OCO4)cnc2-c2ccccc2)cn1` [CBK037571], the viability at 28.5 h, 10 µM was found to be 97.9%.

Turning to `Nc1cccc(-c2nc(NC(=O)c3ccncc3)cnc2-c2ccc(F)c(Cl)c2)c1` [CBK037573], the viability at 28.5 h, 10 µM was found to be 114%.

For `COc1ccc(-c2cc(C(=O)N3CCN(C(C)=O)CC3)cnc2-c2ccc(Cl)cc2)cc1` [CBK037577], the viability at 28.5 h, 10 µM was found to be 102%.

For the molecule `COc1ccc(-c2cc(C(=O)NCc3nc4ccccc4[nH]3)cnc2-c2ccccc2)cn1` [CBK037579], the viability at 28.5 h, 10 µM came to 99.6%.

In the case of `Nc1ccc(CCNC(=O)c2cnc(-c3cccc(C(F)(F)F)c3)c(-c3ccncc3)c2)cc1` [CBK037580], the viability at 28.5 h, 10 µM came out at 90.8%.

On to `Cc1cccc(-c2ncc(NC(=O)Cc3cccc(Oc4ccccc4)c3)nc2-c2ccc(N)cc2)c1` [CBK037583], for which the viability at 28.5 h, 10 µM was 97.2%.

As to `COc1ccc(Nc2ccc(-c3cccc(N(C)C)c3)cn2)cn1` [CBK037588], the viability at 28.5 h, 10 µM came to 95.5%.

`O=C(Nc1ccc2ncccc2c1)c1cnc(-c2cccc(C(F)(F)F)c2)c(-c2cccnc2)c1` [CBK037591]: the viability at 28.5 h, 10 µM was 89.9%.

For the molecule `COc1cc(CNc2cccc(-c3ccsc3)n2)cc(OC)c1` [CBK037592], the viability at 28.5 h, 10 µM turned out to be 97.8%.

For `Cc1ccc(S(=O)(=O)NCC(=O)Nc2cnc(-c3cccc(C)c3)c(-c3ccc(N)cc3)n2)cc1` [CBK037600], the viability at 28.5 h, 10 µM came out at 83.5%.

As to `O=C(NC1CCN(Cc2ccccc2)CC1)c1cnc(-c2ccc(Cl)cc2)c(-c2cccnc2)c1` [CBK037602], the viability at 28.5 h, 10 µM is 92.2%.

Turning to `COc1ccc(-c2cc(C(=O)N[C@H]3CCN(Cc4ccccc4)C3)cnc2-c2ccccc2)cn1` [CBK037605], the viability at 28.5 h, 10 µM was determined as 93.9%.

Turning to `COc1ccc(-c2ccc(Nc3cccc(N(C)C)c3)nc2)cc1OC` [CBK037606], the viability at 28.5 h, 10 µM turned out to be 90%.

For `COc1cc(Nc2cccc(-c3ccc4ccccc4c3)n2)cc(OC)c1OC` [CBK037612], the viability at 28.5 h, 10 µM came out at 97.9%.

Take `CO[C@@H](C(=O)Nc1cnc(-c2cccc(C)c2)c(-c2ccco2)n1)c1ccccc1` [CBK037613]: the viability at 28.5 h, 10 µM was 105%.

Take `C(=C\c1cccc(Nc2ccc(Oc3ccccc3)cc2)n1)/c1ccccc1` [CBK037614]: the viability at 28.5 h, 10 µM was determined as 94.1%.

As for `COC(=O)c1ccc(Nc2cccc(-c3cccc(N)c3)n2)cc1OC` [CBK037619], the viability at 28.5 h, 10 µM came out at 102%.

As to `COc1ccc(-c2cc(C(=O)NCCS(C)(=O)=O)cnc2-c2ccc(Cl)cc2)cc1` [CBK037620], the viability at 28.5 h, 10 µM turned out to be 111%.

For `Clc1ccc(-c2ccc(N3CCN(CCN4CCCC4)CC3)nc2)cc1` [CBK037623], the viability at 28.5 h, 10 µM stood at 97.8%.

In the case of `COc1ccccc1-c1nccnc1N[C@H]1CCN(Cc2ccccc2)C1` [CBK037626], the viability at 28.5 h, 10 µM worked out at 94.4%.

As to `CCCCN(C)c1nccnc1-c1cccnc1` [CBK037631], the viability at 28.5 h, 10 µM was 99.2%.

Regarding `COc1ccc(-c2cccc(Nc3cc(OC)c(OC)c(OC)c3)n2)cc1OC` [CBK037634], the viability at 28.5 h, 10 µM came to 55.7%.

Regarding `c1ccc(Oc2ccc(Nc3cccc(-c4ccc5ccccc5c4)n3)cc2)cc1` [CBK037636], the viability at 28.5 h, 10 µM was found to be 112%.

`COc1ccccc1-c1nccnc1NCC(C)O` (centres unmarked) [CBK037637]: the viability at 28.5 h, 10 µM was determined as 90.4%.

Regarding `O=C(c1ccco1)N1CCN(c2ccc(-c3cccc4cccnc34)cn2)CC1` [CBK037640], the viability at 28.5 h, 10 µM came to 72.4%.

`Fc1ccc(-c2ccc(Nc3cccnc3)nc2)cc1Cl` [CBK037642]: the viability at 28.5 h, 10 µM is 93%.

On to `c1ccc(Oc2ccc(Nc3ccc(-c4cccc5cccnc45)cn3)cc2)cc1` [CBK037643], for which the viability at 28.5 h, 10 µM was determined as 105%.

As to `CCCC/C=C/c1cccc(Nc2cccnc2)n1` [CBK037645], the viability at 28.5 h, 10 µM turned out to be 103%.

In the case of `COc1cc(-c2nccnc2NCC2CCCCC2)cc(OC)c1OC` [CBK037647], the viability at 28.5 h, 10 µM stood at 93.9%.

On to `CCCCN(C)c1nccnc1-c1ccncc1` [CBK037655], for which the viability at 28.5 h, 10 µM came to 93.4%.

As to `CS(=O)(=O)c1ccc(-c2nccnc2N2CCCCC2CO)cc1` (centres unmarked) [CBK037657], the viability at 28.5 h, 10 µM was determined as 102%.

In the case of `c1ccc(N2CCN(c3cccc(-c4ccco4)n3)CC2)nc1` [CBK037662], the viability at 28.5 h, 10 µM is 107%.

As for `O=c1[nH]ccn1CCNc1ccc(-c2ccccc2Oc2ccccc2)cn1` [CBK037665], the viability at 28.5 h, 10 µM stood at 103%.

Regarding `CCCCN(C)c1nccnc1-c1ccc(CO)cc1` [CBK037666], the viability at 28.5 h, 10 µM came out at 92.3%.

Regarding `CS(=O)(=O)c1ccc(-c2nccnc2N[C@@H]2CCN(Cc3ccccc3)C2)cc1` [CBK037667], the viability at 28.5 h, 10 µM came to 102%.

In the case of `OCc1cccc(-c2nccnc2NCc2ccc(F)cc2)c1` [CBK037670], the viability at 28.5 h, 10 µM worked out at 103%.

Regarding `COc1ccc(-c2nccnc2NCCCN(C)C)cc1` [CBK037671], the viability at 28.5 h, 10 µM was determined as 93.9%.

Take `Fc1cccc(F)c1-c1cc(Nc2ccc(N3CCOCC3)cc2)ncn1` [CBK037673]: the viability at 28.5 h, 10 µM stood at 99.5%.

`CCOc1cccc(-c2ccc(Nc3ccc(Oc4ccccc4)cc3)nc2)c1` [CBK037679]: the viability at 28.5 h, 10 µM amounted to 94.4%.

As to `O=C(c1ccco1)N1CCN(c2ccc(-c3ccc(F)c(Cl)c3)cn2)CC1` [CBK037683], the viability at 28.5 h, 10 µM came out at 93.9%.

As to `c1cc(CCNc2cc(-c3ccc4c(c3)OCO4)ncn2)ccn1` [CBK037689], the viability at 28.5 h, 10 µM amounted to 99.5%.

Turning to `FC(F)(F)c1cc(-c2cc(N3CCC(N4CCCCC4)CC3)ncn2)cc(C(F)(F)F)c1` [CBK037692], the viability at 28.5 h, 10 µM came out at 92.6%.

In the case of `CCN(CC)CCN1CCN(c2cc(-c3ccc4c(c3)OCO4)ncn2)CC1` [CBK037694], the viability at 28.5 h, 10 µM was found to be 86%.

Consider `CN(C)c1cccc(-c2cccc(NCC(c3cccnc3)N(C)C)n2)c1` (centres unmarked) [CBK037697], for which the viability at 28.5 h, 10 µM is 117%.

Take `Fc1ccc(-c2cccc(Nc3ccc(Oc4ccccc4)cc3)n2)cc1Cl` [CBK037699]: the viability at 28.5 h, 10 µM turned out to be 102%.

Take `O=C(O)c1ccc(-c2ccc(N3CCN(C(=O)c4ccco4)CC3)nc2)cc1` [CBK037700]: the viability at 28.5 h, 10 µM was found to be 97.9%.

As to `O=C(c1ccco1)N1CCN(c2ccc(/C=C/c3ccccc3)cn2)CC1` [CBK037701], the viability at 28.5 h, 10 µM was determined as 98.7%.

On to `COc1cc(-c2ccc(Nc3cccnc3)nc2)cc(OC)c1OC` [CBK037704], for which the viability at 28.5 h, 10 µM amounted to 84.6%.

Turning to `c1ccc2c(c1)oc1cccc(-c3cc(NCCc4c[nH]cn4)ncn3)c12` [CBK037708], the viability at 28.5 h, 10 µM was 94.6%.

Consider `CC(=O)Nc1cccc(-c2cc(Nc3ccc(N4CCN(Cc5ccccc5)CC4)cc3)ncn2)c1` [CBK037709], for which the viability at 28.5 h, 10 µM worked out at 81.8%.

`O=[N+]([O-])c1cccc(-c2cc(N3CCC(N4CCCCC4)CC3)ncn2)c1` [CBK037710]: the viability at 28.5 h, 10 µM came to 107%.

For the molecule `c1cncc(-c2cc(NCCc3ccncc3)ncn2)c1` [CBK037716], the viability at 28.5 h, 10 µM worked out at 114%.

On to `COc1cc(Nc2cccc(-c3ccco3)n2)cc(OC)c1OC` [CBK037724], for which the viability at 28.5 h, 10 µM is 108%.

With `COCCNc1cc(-c2ccncc2)ncn1` [CBK037729], the viability at 28.5 h, 10 µM came to 87.6%.

Consider `CCNc1cc(-c2cccc(N)c2)ncn1` [CBK037731], for which the viability at 28.5 h, 10 µM was determined as 96.4%.

For the molecule `O=C(c1ccco1)N1CCN(c2cc(-c3cc(C(F)(F)F)cc(C(F)(F)F)c3)ncn2)CC1` [CBK037734], the viability at 28.5 h, 10 µM is 102%.

In the case of `O=C(c1ccco1)N1CCN(c2ccc(-c3cccc(Cl)c3Cl)cn2)CC1` [CBK037737], the viability at 28.5 h, 10 µM stood at 95.4%.

For the molecule `COc1cncc(-c2ccc(N3CCN(c4ccccc4C#N)CC3)nc2)c1` [CBK037738], the viability at 28.5 h, 10 µM amounted to 107%.

Consider `CCOc1cccc(-c2ccc(Nc3cccc(NC(=O)c4ccncc4)c3)nc2)c1` [CBK037739], for which the viability at 28.5 h, 10 µM came out at 49.4%.
